Our source for the Control and IC50 values is ChEMBL document CHEMBL1121931, “Synthesis and pharmacological evaluation of conformationally restricted phenothiazine analogues” (J Med Chem, 1982).

Assay [1] is filed under the species Rattus norvegicus. The assay can be described thus: Compound's potency to increase the level of the dopamine metabolite DOPAC levels in male wistar rats at 0.6 ug/g dose. The class given is functional.
The species entered for assay [2] is Rattus norvegicus. The assay can be described thus: Compound's potency to increase the level of the dopamine metabolite homovanillic acid (HVA), levels in male wistar rats at 0.44 ug/g dose. The class given is functional.
For the next assay, the target named is Dopamine receptor (Bos taurus, UniProt Q95136+P20288). The assay can be described thus: Compound was tested for its ability to displace [3H]spiroperidol from dopamine receptor. The class given is protein assay.
Assay [3] is filed under the species Rattus norvegicus. The assay can be described thus: Compound's potency to increase the level of the dopamine metabolite homovanillic acid (HVA), levels in male wistar rats at 0.54 ug/g dose. The class given is functional.
The species entered for assay [4] is Rattus norvegicus. The assay can be described thus: Compound's potency to increase the level of the dopamine metabolite DOPAC levels in male wistar rats at 0.95 ug/g dose. Type of assay: functional.
Assay [5] is filed under the species Rattus norvegicus. The assay can be described thus: Compound's potency to increase the level of the dopamine metabolite homovanillic acid (HVA), levels in male wistar rats at 0.63 ug/g dose. Type of assay: functional.
For assay [6], the species on record is Rattus norvegicus. Kind of assay: Compound's potency to increase the level of the dopamine metabolite DOPAC levels in male wistar rats at 1.15 ug/g dose. Type of assay: functional.
Assay [7] is filed under the species Rattus norvegicus. Kind of assay: Compound's potency to increase the level of the dopamine metabolite DOPAC levels in male wistar rats at 0.73 ug/g dose. The class given is functional.
The species named for assay [8] is Rattus norvegicus. The assay can be described thus: Compound's potency to increase the level of the dopamine metabolite DOPAC levels in male wistar rats at 1.26 ug/g dose. The class given is functional.
The species named for assay [9] is Rattus norvegicus. Kind of assay: Compound's potency to increase the level of the dopamine metabolite homovanillic acid (HVA), levels in male wistar rats at 1.10 ug/g dose. The class given is functional.
The species named for assay [10] is Rattus norvegicus. Kind of assay: Compound's potency to increase the level of the dopamine metabolite DOPAC levels in male wistar rats at 0.62 ug/g dose. The class given is functional.
The species named for assay [11] is Rattus norvegicus. The assay can be described thus: Compound's potency to increase the level of the dopamine metabolite homovanillic acid (HVA), levels in male wistar rats at 0.39 ug/g dose. The class given is functional.

`CN(C)C1CCN2c3ccccc3Sc3cccc1c32` (stereo not given): the Control in the assay listed under Rattus norvegicus [1] was found to be 95%; in the assay filed under Rattus norvegicus [2], 93%.

For the molecule `CN(C)CC1Cc2cccc3c2N(C1)c1cc(Cl)ccc1S3` (stereo not given), at Dopamine receptor, the IC50 (usually the concentration that inhibits the measured activity by half) stood at 13000 nM. Further, the Control in the assay filed under Rattus norvegicus [3] was found to be 70%; in the assay listed under Rattus norvegicus [4], 89%.

On Dopamine receptor, `CN(C)CC1Cc2cccc3c2N(C1)c1ccccc1S3` (stereo not given) returned an IC50 of 0.0014 nM. Also, the Control in the assay listed under Rattus norvegicus [5] is 90%; in the assay listed under Rattus norvegicus [6], 107%.

On to `CN(C)C1CCN2c3ccccc3Sc3ccc(Cl)c1c32` (stereo not given), for which the results for the Control in the assay filed under Rattus norvegicus [7] and in the assay listed under Rattus norvegicus [2] were 115% and 100%, respectively.

On Dopamine receptor, `CN(C)CC1Cc2c(Cl)ccc3c2N(C1)c1ccccc1S3` (stereo not given) showed a half-inhibitory concentration (IC50) of 1200 nM. The Control in the assay listed under Rattus norvegicus [8] worked out at 118%; in the assay filed under Rattus norvegicus [9] it was 157%.

With `CN(C)C1CCN2c3cc(Cl)ccc3Sc3cccc1c32` (stereo not given), the figures for the Control in the assay filed under Rattus norvegicus [10] and in the assay filed under Rattus norvegicus [11] were 98% and 88%, respectively.
